The structures appear in SMILES notation. pIC50: −log10 of the molar value. Read-outs that look alike come from different tables or passages of the source. Positions of bridges follow the written chain, without caps; N, C: chain ends. Residues, ends and D or L forms follow the SMILES beside them.

What all share (assay): cell-based
The target in one test is hNav1.5 (Homo sapiens, UniProt Q14524). To be noted: for IC50: IWQ Use Nav1.5 (μM).
In a further test the target is hNav1.7 (Homo sapiens, UniProt Q15858). Type of test: cell-based. The following applies: ratio of IWQ Use values, Nav1.4 over Nav1.7.
Another test concerns the target hNav1.3 (Homo sapiens, UniProt Q9NY46). The following applies: ratio of IWQ Use values; for Nav1.4/Nav1.3: Nav1.4 over Nav1.3; for Nav1.7/Nav1.3: Nav1.7 over Nav1.3.

hNav1.5, sequence (Q14524 whole entry, looked up): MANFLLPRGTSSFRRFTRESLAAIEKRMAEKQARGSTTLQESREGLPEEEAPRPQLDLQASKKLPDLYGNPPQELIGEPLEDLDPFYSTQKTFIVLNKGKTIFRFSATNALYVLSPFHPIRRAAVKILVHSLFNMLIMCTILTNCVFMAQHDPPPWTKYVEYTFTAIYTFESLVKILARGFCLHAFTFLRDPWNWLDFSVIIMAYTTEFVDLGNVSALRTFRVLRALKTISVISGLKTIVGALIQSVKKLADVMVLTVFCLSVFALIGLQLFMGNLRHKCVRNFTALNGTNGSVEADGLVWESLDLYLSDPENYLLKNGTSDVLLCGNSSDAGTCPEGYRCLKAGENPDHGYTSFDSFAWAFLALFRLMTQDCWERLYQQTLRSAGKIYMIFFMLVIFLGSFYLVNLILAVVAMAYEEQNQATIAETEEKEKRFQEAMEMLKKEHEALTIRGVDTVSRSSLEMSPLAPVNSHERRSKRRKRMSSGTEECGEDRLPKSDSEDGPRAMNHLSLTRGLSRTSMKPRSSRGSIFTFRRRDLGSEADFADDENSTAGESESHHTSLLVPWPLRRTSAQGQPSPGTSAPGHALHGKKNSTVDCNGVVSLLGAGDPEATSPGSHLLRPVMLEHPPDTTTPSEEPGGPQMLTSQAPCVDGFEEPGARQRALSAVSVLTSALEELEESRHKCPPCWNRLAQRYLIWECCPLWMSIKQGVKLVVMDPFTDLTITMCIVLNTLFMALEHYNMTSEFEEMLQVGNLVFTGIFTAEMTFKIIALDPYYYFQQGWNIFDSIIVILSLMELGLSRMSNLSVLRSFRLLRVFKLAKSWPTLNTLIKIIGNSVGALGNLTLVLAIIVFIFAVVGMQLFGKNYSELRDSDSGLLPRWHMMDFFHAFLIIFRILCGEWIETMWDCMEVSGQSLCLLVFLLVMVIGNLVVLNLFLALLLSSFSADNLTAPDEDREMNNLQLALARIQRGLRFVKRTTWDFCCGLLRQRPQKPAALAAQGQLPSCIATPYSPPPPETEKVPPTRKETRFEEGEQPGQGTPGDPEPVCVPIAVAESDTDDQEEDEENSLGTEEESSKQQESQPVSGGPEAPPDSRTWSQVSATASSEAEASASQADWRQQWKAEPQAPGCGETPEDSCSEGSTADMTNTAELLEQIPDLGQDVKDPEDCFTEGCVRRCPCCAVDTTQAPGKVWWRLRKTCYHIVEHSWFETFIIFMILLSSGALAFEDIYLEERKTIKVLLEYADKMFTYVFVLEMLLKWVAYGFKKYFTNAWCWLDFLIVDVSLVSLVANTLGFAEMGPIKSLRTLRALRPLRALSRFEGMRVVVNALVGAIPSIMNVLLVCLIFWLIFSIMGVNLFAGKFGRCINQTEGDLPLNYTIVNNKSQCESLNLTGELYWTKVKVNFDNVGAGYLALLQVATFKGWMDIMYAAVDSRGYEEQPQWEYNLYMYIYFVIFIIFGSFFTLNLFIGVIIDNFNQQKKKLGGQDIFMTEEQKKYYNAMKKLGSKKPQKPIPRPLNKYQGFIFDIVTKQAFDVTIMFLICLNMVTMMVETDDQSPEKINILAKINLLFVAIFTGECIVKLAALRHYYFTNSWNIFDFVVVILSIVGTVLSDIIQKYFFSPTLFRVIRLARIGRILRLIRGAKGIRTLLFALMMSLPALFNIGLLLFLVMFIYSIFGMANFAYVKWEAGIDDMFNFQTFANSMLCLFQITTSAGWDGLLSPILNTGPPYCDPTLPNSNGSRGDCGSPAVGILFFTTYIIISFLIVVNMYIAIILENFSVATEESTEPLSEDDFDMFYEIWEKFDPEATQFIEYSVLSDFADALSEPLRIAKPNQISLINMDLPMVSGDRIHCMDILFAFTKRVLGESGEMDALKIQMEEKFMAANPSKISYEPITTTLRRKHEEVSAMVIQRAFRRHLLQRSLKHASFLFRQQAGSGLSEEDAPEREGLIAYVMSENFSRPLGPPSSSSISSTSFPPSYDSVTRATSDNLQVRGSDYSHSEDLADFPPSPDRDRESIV
hNav1.3, sequence (Q9NY46 whole entry, looked up): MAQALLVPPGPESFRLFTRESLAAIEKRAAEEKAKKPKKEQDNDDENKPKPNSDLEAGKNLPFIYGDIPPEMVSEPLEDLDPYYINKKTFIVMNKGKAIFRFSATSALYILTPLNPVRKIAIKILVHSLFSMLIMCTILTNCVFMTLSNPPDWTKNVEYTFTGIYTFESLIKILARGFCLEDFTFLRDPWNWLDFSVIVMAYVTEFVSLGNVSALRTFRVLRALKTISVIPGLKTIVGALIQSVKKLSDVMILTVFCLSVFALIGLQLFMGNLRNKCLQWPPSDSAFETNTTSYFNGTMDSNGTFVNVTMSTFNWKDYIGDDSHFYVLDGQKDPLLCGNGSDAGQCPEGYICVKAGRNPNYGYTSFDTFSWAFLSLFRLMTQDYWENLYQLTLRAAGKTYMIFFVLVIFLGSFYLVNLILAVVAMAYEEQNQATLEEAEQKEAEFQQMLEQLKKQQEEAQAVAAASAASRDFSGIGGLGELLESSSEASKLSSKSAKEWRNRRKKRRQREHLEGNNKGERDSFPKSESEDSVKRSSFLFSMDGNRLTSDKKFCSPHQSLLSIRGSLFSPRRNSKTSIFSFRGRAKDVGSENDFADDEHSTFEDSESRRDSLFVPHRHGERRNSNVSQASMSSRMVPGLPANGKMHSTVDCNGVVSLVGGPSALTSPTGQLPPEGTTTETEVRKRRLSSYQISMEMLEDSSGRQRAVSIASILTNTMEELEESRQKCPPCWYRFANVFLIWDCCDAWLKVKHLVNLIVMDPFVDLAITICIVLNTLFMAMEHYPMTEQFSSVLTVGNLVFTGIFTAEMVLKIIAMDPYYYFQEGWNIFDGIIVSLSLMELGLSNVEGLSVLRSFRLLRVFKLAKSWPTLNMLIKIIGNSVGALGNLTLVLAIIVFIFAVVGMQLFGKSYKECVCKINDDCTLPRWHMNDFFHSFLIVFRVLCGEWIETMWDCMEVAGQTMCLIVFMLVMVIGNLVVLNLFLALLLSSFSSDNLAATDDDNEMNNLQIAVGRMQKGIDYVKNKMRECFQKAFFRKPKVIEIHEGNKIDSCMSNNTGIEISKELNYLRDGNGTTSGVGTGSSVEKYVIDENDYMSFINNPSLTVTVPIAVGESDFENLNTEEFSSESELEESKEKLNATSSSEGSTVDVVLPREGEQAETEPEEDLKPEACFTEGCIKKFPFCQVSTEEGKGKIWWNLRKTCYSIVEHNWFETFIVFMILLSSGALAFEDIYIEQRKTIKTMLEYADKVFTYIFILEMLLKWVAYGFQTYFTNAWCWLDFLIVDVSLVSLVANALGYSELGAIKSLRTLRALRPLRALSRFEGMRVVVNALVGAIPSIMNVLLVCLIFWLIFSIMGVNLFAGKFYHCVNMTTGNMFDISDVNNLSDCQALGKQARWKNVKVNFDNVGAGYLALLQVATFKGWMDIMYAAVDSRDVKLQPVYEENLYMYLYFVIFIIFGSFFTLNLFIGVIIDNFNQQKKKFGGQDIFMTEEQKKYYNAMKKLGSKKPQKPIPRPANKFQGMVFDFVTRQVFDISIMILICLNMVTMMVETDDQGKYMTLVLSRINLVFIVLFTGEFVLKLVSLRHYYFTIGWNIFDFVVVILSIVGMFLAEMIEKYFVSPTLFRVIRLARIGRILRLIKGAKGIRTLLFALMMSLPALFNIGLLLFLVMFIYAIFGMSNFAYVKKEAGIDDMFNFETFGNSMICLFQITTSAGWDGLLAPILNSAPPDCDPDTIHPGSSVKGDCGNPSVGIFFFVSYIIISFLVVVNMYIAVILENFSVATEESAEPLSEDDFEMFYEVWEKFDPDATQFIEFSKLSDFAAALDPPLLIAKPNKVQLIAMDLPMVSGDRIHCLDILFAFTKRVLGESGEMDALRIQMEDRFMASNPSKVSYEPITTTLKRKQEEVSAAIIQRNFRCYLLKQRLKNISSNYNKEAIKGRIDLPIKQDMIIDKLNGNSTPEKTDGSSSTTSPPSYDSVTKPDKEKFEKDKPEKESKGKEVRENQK

For `CC[C@H](C)[C@@H]1NC(=O)[C@@H]2CSSC[C@@H]3NC(=O)[C@H](C(C)C)NC(=O)[C@H](CC(C)C)NC(=O)[C@H](CC(N)=O)NC(=O)[C@@H]4CCCN4C(=O)[C@H](CCCNC(=N)N)NC(=O)[C@H](CSSC[C@H](NC(=O)[C@@H](N)CC(=O)O)C(=O)N[C@@H](CC(C)C)C(=O)NCC(=O)N[C@H](Cc4ccccc4)C(=O)N[C@@H](CCSC)C(=O)N[C@@H](CCCNC(=N)N)C(=O)N[C@@H](CCCCN)C(=O)N2)NC(=O)[C@H](CSSC[C@@H](C(=O)N[C@@H](CCCCN)C(=O)N[C@@H](Cc2ccc(O)cc2)C(=O)N[C@H](C(=O)N[C@@H](Cc2ccccc2)C(N)=O)C(C)C)NC(=O)[C@H](Cc2c[nH]c4ccccc24)NC(=O)[C@H](CCCCN)NC(=O)[C@H](Cc2c[nH]cn2)NC(=O)[C@H]([C@@H](C)O)NC(=O)[C@H](CCCNC(=N)N)NC(=O)[C@H](CO)NC3=O)NC(=O)[C@H](CCCCN)NC(=O)[C@H](CC(=O)O)NC(=O)[C@H](CC(N)=O)NC(=O)[C@H](CC(=O)O)NC(=O)[C@@H]2CCCN2C1=O` [SEQ ID NO: 273], on hNav1.5 (IWQ Use Nav1.5), the pIC50 was < 5.30.

In the case of `CC[C@H](C)[C@@H]1NC(=O)[C@@H]2CSSC[C@@H]3NC(=O)[C@H](C(C)C)NC(=O)[C@H](CC(C)C)NC(=O)[C@H](CC(N)=O)NC(=O)[C@@H]4CCCN4C(=O)[C@H](CCCNC(=N)N)NC(=O)[C@H](CSSC[C@H](NC(=O)[C@@H](N)CC(=O)O)C(=O)N[C@@H](CC(C)C)C(=O)NCC(=O)N[C@@H](Cc4ccccc4)C(=O)N[C@@H](CCSC)C(=O)N[C@@H](CCCNC(=N)N)C(=O)N[C@@H](CCCCN)C(=O)N2)NC(=O)[C@H](CSSC[C@@H](C(=O)N[C@@H](CCCCN)C(=O)N[C@@H](Cc2ccc(O)cc2)C(=O)N[C@H](C(=O)N[C@@H](Cc2ccccc2)C(N)=O)C(C)C)NC(=O)[C@H](Cc2c[nH]c4ccccc24)NC(=O)[C@H](CCC(N)=O)NC(=O)[C@H](Cc2c[nH]cn2)NC(=O)[C@H]([C@@H](C)O)NC(=O)[C@H](CCCNC(=N)N)NC(=O)[C@H](CO)NC3=O)NC(=O)[C@H](CCCCN)NC(=O)[C@H](CC(=O)O)NC(=O)[C@H](CC(N)=O)NC(=O)[C@H](CC(=O)O)NC(=O)[C@@H]2CCCN2C1=O` [SEQ ID NO: 763, [Gln28]GpTx-1] (H-DCLGFMRKCIPDNDKCCRPNLVCSRTHQWCKYVF-NH2; disulfide 2-17, 9-23, 16-30), on hNav1.5 (read-out: IWQ Use Nav1.5), the pIC50 was 4.64.

The term IC50 denotes the concentration that gives 50% inhibition. Read a high IC50 as weaker potency. As for `CC[C@@H](C)[C@H]1NC(=O)[C@H]2CSSC[C@H]3NC(=O)[C@@H](C(C)C)NC(=O)[C@@H](CC(C)C)NC(=O)[C@@H](CC(N)=O)NC(=O)[C@H]4CCCN4C(=O)[C@@H](CCCNC(=N)N)NC(=O)[C@@H](CSSC[C@@H](NC(=O)[C@H](N)CC(=O)O)C(=O)N[C@H](CC(C)C)C(=O)NCC(=O)N[C@H](Cc4ccccc4)C(=O)N[C@H](CCSC)C(=O)N[C@H](CCCNC(=N)N)C(=O)N[C@H](CCCCN)C(=O)N2)NC(=O)[C@@H](CSSC[C@H](C(=O)N[C@H](CCCCN)C(=O)N[C@H](Cc2ccc(O)cc2)C(=O)N[C@@H](C(=O)N[C@H](Cc2ccccc2)C(N)=O)C(C)C)NC(=O)[C@@H](Cc2c[nH]c4ccccc24)NC(=O)[C@@H](CCCCN)NC(=O)[C@@H](Cc2c[nH]cn2)NC(=O)[C@@H]([C@H](C)O)NC(=O)[C@@H](CCCNC(=N)N)NC(=O)[C@@H](CO)NC3=O)NC(=O)[C@@H](CCCCN)NC(=O)[C@@H](CC(=O)O)NC(=O)[C@@H](CC(N)=O)NC(=O)[C@@H](CC(=O)O)NC(=O)[C@H]2CCCN2C1=O` [compound 2], the IC50 against hNav1.5 is 11.3 µM.

On to `CC[C@H](C)[C@@H]1NC(=O)[C@@H]2CSSC[C@@H]3NC(=O)[C@H](C(C)C)NC(=O)[C@H](CC(C)C)NC(=O)[C@H](CC(N)=O)NC(=O)[C@@H]4CCCN4C(=O)[C@H](CCCNC(=N)N)NC(=O)[C@H](CSSC[C@H](NC(=O)[C@@H](N)CC(=O)O)C(=O)N[C@@H](CC(C)C)C(=O)NCC(=O)N[C@@H](Cc4ccccc4)C(=O)N[C@@H](CCSC)C(=O)N[C@@H](CCCNC(=N)N)C(=O)N[C@@H](CCCCN)C(=O)N2)NC(=O)[C@H](CSSC[C@@H](C(=O)N[C@@H](CCCCN)C(=O)N[C@@H](Cc2ccc(O)cc2)C(=O)N[C@H](C(=O)N[C@@H](Cc2ccccc2)C(N)=O)C(C)C)NC(=O)[C@H](Cc2c[nH]c4ccccc24)NC(=O)[C@H](CCCCN)NC(=O)[C@H](Cc2c[nH]cn2)NC(=O)[C@H](Cc2c[nH]cn2)NC(=O)[C@H](CCCNC(=N)N)NC(=O)[C@H](CO)NC3=O)NC(=O)[C@H](CCCCN)NC(=O)[C@H](CC(=O)O)NC(=O)[C@H](CC(N)=O)NC(=O)[C@H](CC(=O)O)NC(=O)[C@@H]2CCCN2C1=O` [compound 337] (H-DCLGFMRKCIPDNDKCCRPNLVCSRHHKWCKYVF-NH2; disulfide 2-17, 9-23, 16-30), for which the pIC50 at hNav1.5 (Table 22, IonWorks Quattro, use, […], read-out: IWQ Use Nav1.5) was 5.34.

For the compound `CC[C@H](C)[C@@H]1NC(=O)[C@@H]2CSSC[C@@H]3NC(=O)[C@H](C(C)C)NC(=O)[C@H](CC(C)C)NC(=O)[C@H](CC(N)=O)NC(=O)[C@@H]4CCCN4C(=O)[C@H](CCCNC(=N)N)NC(=O)[C@H](CSSC[C@H](NC(=O)[C@@H](N)CC(=O)O)C(=O)N[C@@H](CC(C)C)C(=O)NCC(=O)N[C@@H](Cc4ccccc4)C(=O)N[C@@H](CCSC)C(=O)N[C@@H](CCCNC(=N)N)C(=O)N[C@@H](CCCCN)C(=O)N2)NC(=O)[C@H](CSSC[C@@H](C(=O)N[C@@H](CCCCN)C(=O)N[C@@H](Cc2ccc(O)cc2)C(=O)N[C@H](C(=O)N[C@H](Cc2ccccc2)C(N)=O)C(C)C)NC(=O)[C@H](Cc2c[nH]c4ccccc24)NC(=O)[C@H](CCCCN)NC(=O)[C@H](Cc2c[nH]cn2)NC(=O)[C@H]([C@@H](C)O)NC(=O)[C@H](CCCNC(=N)N)NC(=O)[C@H](CO)NC3=O)NC(=O)[C@H](CCCCN)NC(=O)[C@H](CC(=O)O)NC(=O)[C@H](CC(N)=O)NC(=O)[C@H](CC(=O)O)NC(=O)[C@@H]2CCCN2C1=O` [compound 404], the IC50 against hNav1.5 was 20.7 µM.

For the compound `CC[C@H](C)[C@@H]1NC(=O)[C@@H]2CSSC[C@@H]3NC(=O)[C@H](C(C)C)NC(=O)[C@H](CC(C)C)NC(=O)[C@H](CC(N)=O)NC(=O)[C@@H]4CCCN4C(=O)[C@H](CCCNC(=N)N)NC(=O)[C@H](CSSC[C@H](NC(=O)[C@@H](N)CC(=O)O)C(=O)N[C@@H](CC(C)C)C(=O)NCC(=O)N[C@@H](Cc4ccc(C(F)(F)F)cc4)C(=O)N[C@@H](CCSC)C(=O)N[C@@H](CCCNC(=N)N)C(=O)N[C@@H](CCCCN)C(=O)N2)NC(=O)[C@H](CSSC[C@@H](C(=O)N[C@@H](CCCCN)C(=O)N[C@@H](Cc2ccc(O)cc2)C(=O)N[C@H](C(=O)N[C@@H](Cc2ccccc2)C(N)=O)C(C)C)NC(=O)[C@H](Cc2c[nH]c4ccccc24)NC(=O)[C@H](CCCCN)NC(=O)[C@H](Cc2c[nH]cn2)NC(=O)[C@H]([C@@H](C)O)NC(=O)[C@H](CCCNC(=N)N)NC(=O)[C@H](CO)NC3=O)NC(=O)[C@H](CCCCN)NC(=O)[C@H](CC(=O)O)NC(=O)[C@H](CC(N)=O)NC(=O)[C@H](CC(=O)O)NC(=O)[C@@H]2CCCN2C1=O` [compound 654], on hNav1.7, the Nav1.4/Nav1.7 was 4.1. In addition, on hNav1.3, the Nav1.4/Nav1.3 was determined as 18.4 and the Nav1.7/Nav1.3 is 4.4.

As for `CC[C@H](C)[C@@H]1NC(=O)[C@@H]2CSSC[C@@H]3NC(=O)[C@H](C(C)C)NC(=O)[C@H](CC(C)C)NC(=O)[C@H](CC(N)=O)NC(=O)[C@@H]4CCCN4C(=O)[C@H](CCCNC(=N)N)NC(=O)[C@H](CSSC[C@H](NC(=O)[C@@H](N)CC(=O)O)C(=O)N[C@@H](CC(C)C)C(=O)NCC(=O)N[C@@H](Cc4ccc(F)cc4)C(=O)N[C@@H](CCSC)C(=O)N[C@@H](CCCNC(=N)N)C(=O)N[C@@H](CCCCN)C(=O)N2)NC(=O)[C@H](CSSC[C@@H](C(=O)N[C@@H](CCCCN)C(=O)N[C@@H](Cc2ccc(O)cc2)C(=O)N[C@H](C(=O)N[C@@H](Cc2ccccc2)C(N)=O)C(C)C)NC(=O)[C@H](Cc2c[nH]c4ccccc24)NC(=O)[C@H](CCCCN)NC(=O)[C@H](Cc2c[nH]cn2)NC(=O)[C@H]([C@@H](C)O)NC(=O)[C@H](CCCNC(=N)N)NC(=O)[C@H](CO)NC3=O)NC(=O)[C@H](CCCCN)NC(=O)[C@H](CC(=O)O)NC(=O)[C@H](CC(N)=O)NC(=O)[C@H](CC(=O)O)NC(=O)[C@@H]2CCCN2C1=O` [compound 655], at hNav1.7, the Nav1.4/Nav1.7 is 7.1. At hNav1.3, the Nav1.4/Nav1.3 is 26.6 and the Nav1.7/Nav1.3 was determined as 3.8.

For `CC[C@H](C)[C@@H]1NC(=O)[C@@H]2CSSC[C@@H]3NC(=O)[C@H](C(C)C)NC(=O)[C@H](CC(C)C)NC(=O)[C@H](CC(N)=O)NC(=O)[C@@H]4CCCN4C(=O)[C@H](CCCNC(=N)N)NC(=O)[C@H](CSSC[C@H](NC(=O)[C@@H](N)CC(=O)O)C(=O)N[C@@H](CC(C)C)C(=O)NCC(=O)N[C@@H](C)C(=O)N[C@@H](CCSC)C(=O)N[C@@H](CCCNC(=N)N)C(=O)N[C@@H](CCCCN)C(=O)N2)NC(=O)[C@H](CSSC[C@@H](C(=O)N[C@@H](CCCCN)C(=O)N[C@@H](Cc2ccc(O)cc2)C(=O)N[C@H](C(=O)N[C@@H](Cc2ccccc2)C(N)=O)C(C)C)NC(=O)[C@H](Cc2c[nH]c4ccccc24)NC(=O)[C@H](CCC(=O)O)NC(=O)[C@H](Cc2c[nH]cn2)NC(=O)[C@H]([C@@H](C)O)NC(=O)[C@H](CCCNC(=N)N)NC(=O)[C@H](CO)NC3=O)NC(=O)[C@H](CCCCN)NC(=O)[C@H](CC(=O)O)NC(=O)[C@H](CC(N)=O)NC(=O)[C@H](CC(=O)O)NC(=O)[C@@H]2CCCN2C1=O` [compound 691], the pIC50 on hNav1.5 (IonWorks Quattro, use-dependent protocol, hNav1.5, read-out: IWQ Use Nav1.5) was < 5.30.
